In brackets after ≈: the same amount, converted by molar mass. Activity calls are given as the source filed them. No cut-off for these calls is given here.
Columns and labels:
Penicillium digitatum = experiment: Fungicidal activity against Penicillium digitatum assessed as fungal inhibitory rate at 16 ug/ml relative to control; format: functional
Colletotrichum lagenaria = experiment: Fungicidal activity against Colletotrichum lagenarium assessed as fungal inhibitory rate at 16 ug/ml relative to control; format: functional
Botrytis cinerea [1] = experiment: Fungicidal activity against Botrytis cinerea assessed as fungal inhibitory rate at 16 ug/ml relative to control; format: functional
Sclerotinia sclerotiorum = experiment: Fungicidal activity against Sclerotinia sclerotiorum assessed as fungal inhibitory rate at 16 ug/ml relative to control; format: functional
Fusarium oxysporum = experiment: Fungicidal activity against Fusarium oxysporum assessed as fungal inhibitory rate at 16 ug/ml relative to control; format: functional
Botrytis cinerea [2] = experiment: Fungicidal activity against Botrytis cinerea assessed as fungal growth reduction; format: functional, organism-based
[3] = Inhibition of Botrytis cinerea CYP51 by ELISA
Botrytis cinerea [4] = experiment: Inhibition of Botrytis cinerea CYP51 by fluorescent quenching analysis; conditions: dose <= 16.0 µg/ml
Botrytis cinerea [5] = experiment: Induction of morphological changes in Botrytis cinerea assessed as crinkly mycelia at 0.5 ug/ml incubated for 6 days by SEM analysis; format: functional, organism-based; conditions: dose 0.5 µg/ml, time 6.0 day
Botrytis cinerea [6] = experiment: Induction of morphological changes in Botrytis cinerea assessed as thin cell wall at 0.5 ug/ml incubated for 6 days by TEM analysis; format: functional, organism-based; conditions: dose 0.5 µg/ml, time 6.0 day
Botrytis cinerea [7] = experiment: Induction of morphological changes in Botrytis cinerea assessed as tangled mycelia at 0.5 ug/ml incubated for 6 days by SEM analysis; format: functional, organism-based; conditions: dose 0.5 µg/ml, time 6.0 day
Botrytis cinerea [8] = experiment: Induction of morphological changes in Botrytis cinerea assessed as irregular mycelia at 0.5 ug/ml incubated for 6 days by SEM analysis; format: functional, organism-based; conditions: dose 0.5 µg/ml, time 6.0 day
Botrytis cinerea [9] = experiment: Induction of morphological changes in Botrytis cinerea assessed as cracked cell structure at 0.5 ug/ml incubated for 6 days by TEM analysis; format: functional, organism-based; conditions: dose 0.5 µg/ml, time 6.0 day
Botrytis cinerea [10] = experiment: Induction of morphological changes in Botrytis cinerea assessed as thin cell membrane at 0.5 ug/ml incubated for 6 days by TEM analysis; format: functional, organism-based; conditions: dose 0.5 µg/ml, time 6.0 day
Botrytis cinerea [11] = experiment: Induction of morphological changes in Botrytis cinerea assessed as uneven mycelia at 0.5 ug/ml incubated for 6 days by SEM analysis; format: functional, organism-based; conditions: dose 0.5 µg/ml, time 6.0 day

| IC50 [3] | inhibition (Botrytis cinerea [4]) | Compound | inhibition at 16 µg/mL (Penicillium digitatum) | inhibition at 16 µg/mL (Colletotrichum lagenaria) | inhibition at 16 µg/mL (Botrytis cinerea [1]) | inhibition at 16 µg/mL (Sclerotinia sclerotiorum) | inhibition at 16 µg/mL (Fusarium oxysporum) | EC50 (Botrytis cinerea [2]) | Activity (Botrytis cinerea [5]) | Activity (Botrytis cinerea [6]) | Activity (Botrytis cinerea [7]) | Activity (Botrytis cinerea [8]) | Activity (Botrytis cinerea [9]) | Activity (Botrytis cinerea [10]) | Activity (Botrytis cinerea [11]) |
| --- | --- | --- | --- | --- | --- | --- | --- | --- | --- | --- | --- | --- | --- | --- | --- |
|  |  | CN1CC2=C(OC(N)=C(C#N)C2c2ccc(Br)s2)/C(=C/c2ccc(Br)s2)C1 (centres undefined) | 42.5% | 60.5% | 44.8% | 60.7% | 31.2% |  |  |  |  |  |  |  |  |
| 0.831 µg/mL (≈ 1.51 µM) |  | COC(=O)C1=C(N)OC2=C(CN(C(=O)c3ccco3)C/C2=C\c2ccc(Cl)s2)C1c1ccc(Cl)s1 (centres undefined) | 70% | 75.7% | 100% |  | 77.7% | 0.761 µg/mL (≈ 1.39 µM) |  |  |  |  |  |  |  |
| 1.86 µg/mL (≈ 3.24 µM) |  | N#CC1=C(N)OC2=C(CN(C(=O)c3ccco3)C/C2=C\c2ccc(Br)o2)C1c1ccc(Br)o1 (centres undefined) | 49% | 55.8% | 100% | 55.2% | 50.5% | 1.71 µg/mL (≈ 2.98 µM) |  |  |  |  |  |  |  |
| 2.333 µg/mL (≈ 4.52 µM) |  | N#CC1=C(N)OC2=C(CN(C(=O)c3ccco3)C/C2=C\c2ccc(Cl)s2)C1c1ccc(Cl)s1 (centres undefined) | 47.1% | 52.5% | 94% | 53.5% | 46.6% | 2.07 µg/mL (≈ 4.01 µM) |  |  |  |  |  |  |  |
| 1.288 µg/mL (≈ 1.97 µM) |  | COC(=O)C1=C(N)OC2=C(CN(C(=O)c3cccs3)C/C2=C\c2ccc(Br)s2)C1c1ccc(Br)s1 (centres undefined) | 61% | 66.2% | 100% | 68.5% | 62.9% | 1.04 µg/mL (≈ 1.59 µM) |  |  |  |  |  |  |  |
|  |  | COC(=O)C1=C(N)OC2=C(CN(C(=O)c3cccs3)C/C2=C\c2cccs2)C1c1cccs1 (centres undefined) | 33.8% | 36.4% | 78.4% | 40.5% | 31.5% |  |  |  |  |  |  |  |  |
| 3.031 µg/mL (≈ 4.88 µM) |  | N#CC1=C(N)OC2=C(CN(C(=O)c3cccs3)C/C2=C\c2ccc(Br)s2)C1c1ccc(Br)s1 (centres undefined) | 42.2% | 44.3% |  | 48.9% | 41% | 2.71 µg/mL (≈ 4.36 µM) |  |  |  |  |  |  |  |
|  |  | CN1CC2=C(OC(N)=C(C#N)C2c2cccs2)/C(=C/c2cccs2)C1 (centres undefined) |  | 70.9% | 50.2% | 68.8% | 38.9% |  |  |  |  |  |  |  |  |
|  |  | Cc1ccc(/C=C2\CN(C)CC3=C2OC(N)=C(C#N)C3c2ccc(C)o2)o1 (centres undefined) | 74% | 84.8% | 65.6% | 81.6% | 48.5% |  |  |  |  |  |  |  |  |
|  |  | Cc1ccc(/C=C2\CN(C)CC3=C2OC(N)=C(C#N)C3c2ccc(C)s2)s1 (centres undefined) | 38.9% | 57.6% |  | 58.6% | 27.6% |  |  |  |  |  |  |  |  |
| 0.377 µg/mL (≈ 0.841 µM) | Dose-Dependent Effect | COC(=O)C1=C(N)OC2=C(CN(C(=O)c3ccco3)C/C2=C\c2ccco2)C1c1ccco1 (centres undefined) | 78.4% | 86.8% | 100% | 85% | 87.1% |  | Active | Active | Active | Active | Active | Active | Active |
|  |  | COC(=O)C1=C(N)OC2=C(CN(C)C/C2=C\c2ccco2)C1c1ccco1 (centres undefined) | 60.9% | 76.5% | 56.7% | 73.7% | 41.7% |  |  |  |  |  |  |  |  |
|  |  | CN1CC2=C(OC(N)=C(C#N)C2c2ccc(Cl)s2)/C(=C/c2ccc(Cl)s2)C1 (centres undefined) | 46.8% | 66% | 48.5% | 64.9% | 34.5% |  |  |  |  |  |  |  |  |
| 1.138 µg/mL (≈ 1.78 µM) |  | COC(=O)C1=C(N)OC2=C(CN(C(=O)c3ccco3)C/C2=C\c2ccc(Br)s2)C1c1ccc(Br)s1 (centres undefined) | 64.3% | 69.3% | 100% | 71.6% | 67.5% | 0.976 µg/mL (≈ 1.53 µM) |  |  |  |  |  |  |  |
|  |  | COC(=O)C1=C(N)OC2=C(CN(C)C/C2=C\c2cccs2)C1c1cccs1 (centres undefined) | 34.2% | 51.8% | 38.8% | 57.2% | 25.8% |  |  |  |  |  |  |  |  |
|  |  | Cc1ccc(/C=C2\CN(C(=O)c3ccco3)CC3=C2OC(N)=C(C#N)C3c2ccc(C)s2)s1 (centres undefined) | 28.5% | 31.1% | 70.1% |  | 27.6% |  |  |  |  |  |  |  |  |
|  |  | COC(=O)C1=C(N)OC2=C(CN(C)C/C2=C\c2ccc(Cl)s2)C1c1ccc(Cl)s1 (centres undefined) | 30% | 42.9% | 35.2% | 49.6% | 23.6% |  |  |  |  |  |  |  |  |
|  |  | N#CC1=C(N)OC2=C(CN(C(=O)c3ccco3)C/C2=C\c2cccs2)C1c1cccs1 (centres undefined) |  |  | 62.7% | 27.9% | 23.8% |  |  |  |  |  |  |  |  |
